For 15 compounds, IC50 results are on record in patent US9902696B2, “1,4-substituted piperidine derivatives” (Cephalon, Inc., priority 2015, dated 2018).

Where a name gives a salt, the structure may show the parent alone.

The target in the first assay is T1, recombinant human baculovirus-expressed GST-tagged FASN (Homo sapiens, UniProt P49327).
T1 construct: GST
T1 sequence (P49327 whole entry): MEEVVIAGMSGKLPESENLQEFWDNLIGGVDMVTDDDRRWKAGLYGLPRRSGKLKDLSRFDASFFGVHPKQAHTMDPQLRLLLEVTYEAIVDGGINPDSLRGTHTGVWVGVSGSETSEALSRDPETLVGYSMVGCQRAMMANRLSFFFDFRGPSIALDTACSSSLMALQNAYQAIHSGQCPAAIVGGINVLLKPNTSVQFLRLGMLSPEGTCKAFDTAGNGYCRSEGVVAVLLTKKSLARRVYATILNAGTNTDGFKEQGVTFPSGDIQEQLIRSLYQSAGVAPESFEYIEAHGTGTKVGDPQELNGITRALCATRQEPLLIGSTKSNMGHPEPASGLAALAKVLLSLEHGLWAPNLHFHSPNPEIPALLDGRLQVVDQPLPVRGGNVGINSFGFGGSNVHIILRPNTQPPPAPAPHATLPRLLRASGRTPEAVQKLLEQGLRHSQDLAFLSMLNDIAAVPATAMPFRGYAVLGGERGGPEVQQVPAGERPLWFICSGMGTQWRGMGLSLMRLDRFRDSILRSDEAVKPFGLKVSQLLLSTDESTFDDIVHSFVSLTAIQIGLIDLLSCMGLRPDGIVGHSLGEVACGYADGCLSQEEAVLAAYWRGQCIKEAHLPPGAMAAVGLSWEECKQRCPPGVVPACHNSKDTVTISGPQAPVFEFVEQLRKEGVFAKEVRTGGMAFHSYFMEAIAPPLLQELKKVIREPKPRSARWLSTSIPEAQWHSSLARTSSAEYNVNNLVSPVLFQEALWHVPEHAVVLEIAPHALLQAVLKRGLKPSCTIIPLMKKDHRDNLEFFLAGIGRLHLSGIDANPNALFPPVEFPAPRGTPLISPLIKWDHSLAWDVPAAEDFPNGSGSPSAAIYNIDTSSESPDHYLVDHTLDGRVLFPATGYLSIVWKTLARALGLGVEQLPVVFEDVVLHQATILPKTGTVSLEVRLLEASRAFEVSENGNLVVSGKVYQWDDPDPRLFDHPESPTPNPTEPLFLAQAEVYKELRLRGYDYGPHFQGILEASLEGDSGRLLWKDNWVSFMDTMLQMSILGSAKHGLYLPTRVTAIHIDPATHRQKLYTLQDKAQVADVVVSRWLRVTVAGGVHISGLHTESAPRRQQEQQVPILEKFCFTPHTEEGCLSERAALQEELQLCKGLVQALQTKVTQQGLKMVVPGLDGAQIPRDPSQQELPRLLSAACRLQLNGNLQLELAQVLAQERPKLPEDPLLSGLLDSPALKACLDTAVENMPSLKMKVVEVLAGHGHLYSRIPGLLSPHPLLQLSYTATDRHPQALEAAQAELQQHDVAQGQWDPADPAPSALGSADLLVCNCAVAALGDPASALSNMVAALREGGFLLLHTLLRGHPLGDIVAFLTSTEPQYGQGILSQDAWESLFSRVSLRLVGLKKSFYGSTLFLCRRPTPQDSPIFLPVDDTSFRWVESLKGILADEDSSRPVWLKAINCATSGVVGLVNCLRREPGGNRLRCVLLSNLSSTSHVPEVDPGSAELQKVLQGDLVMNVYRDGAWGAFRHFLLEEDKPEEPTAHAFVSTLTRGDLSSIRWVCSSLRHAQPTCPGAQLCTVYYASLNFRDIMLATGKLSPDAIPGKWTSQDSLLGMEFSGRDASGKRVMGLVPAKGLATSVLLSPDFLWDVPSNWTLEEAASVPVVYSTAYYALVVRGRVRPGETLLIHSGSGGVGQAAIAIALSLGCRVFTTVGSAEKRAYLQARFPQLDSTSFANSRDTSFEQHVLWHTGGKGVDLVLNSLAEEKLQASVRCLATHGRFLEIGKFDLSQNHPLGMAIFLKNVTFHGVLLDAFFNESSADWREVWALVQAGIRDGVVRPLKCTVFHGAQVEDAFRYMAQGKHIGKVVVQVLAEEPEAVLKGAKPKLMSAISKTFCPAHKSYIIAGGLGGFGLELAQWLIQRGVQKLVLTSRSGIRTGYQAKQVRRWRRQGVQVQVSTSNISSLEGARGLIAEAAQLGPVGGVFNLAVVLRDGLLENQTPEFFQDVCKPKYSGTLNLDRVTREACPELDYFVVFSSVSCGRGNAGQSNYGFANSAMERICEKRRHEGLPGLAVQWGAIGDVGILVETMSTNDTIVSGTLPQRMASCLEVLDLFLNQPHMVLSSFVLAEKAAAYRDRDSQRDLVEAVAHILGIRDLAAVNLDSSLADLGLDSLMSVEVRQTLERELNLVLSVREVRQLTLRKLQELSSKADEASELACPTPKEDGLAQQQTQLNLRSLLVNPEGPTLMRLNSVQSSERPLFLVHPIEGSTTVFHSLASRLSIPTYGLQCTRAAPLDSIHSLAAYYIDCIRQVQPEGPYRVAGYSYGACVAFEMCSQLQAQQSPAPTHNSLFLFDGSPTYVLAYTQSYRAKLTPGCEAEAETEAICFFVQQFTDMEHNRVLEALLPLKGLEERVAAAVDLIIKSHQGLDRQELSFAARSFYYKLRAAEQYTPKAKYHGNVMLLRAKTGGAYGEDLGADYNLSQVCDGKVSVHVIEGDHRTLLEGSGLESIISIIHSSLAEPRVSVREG
Briefly: FASN enzyme activity assay, fluorescence-based detection of CoA with CPM. The assay is classed as biochemical. The settings on record: 5 nM FASN, 150 μM NADPH, 10 μM acetyl-CoA, 25 μM malonyl-CoA, 90 minutes incubation; read-out: IC50 data for Additional Compounds of Formulae I-V(a): Activity. In a few lines:
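CoA product reacted with thiol-reactive CPM (diluted to 50 μM in 70% ethanol), read at 390/530 nm after 30 min. Preceding reaction: 90 min, 5 nM recombinant GST-FASN, 150 μM NADPH, 10 μM acetyl-CoA, 25 μM malonyl-CoA, pH 7.5 HEPES, 0.5% DMSO. IC50s fitted by nonlinear sigmoidal regression.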
In the case of `Cc1c(-c2ccc(OC3CCN(C(=O)NCCc4c[nH]cn4)CC3)cc2)ccc2cccnc12` [Example 548, N-[2-(1H-Imidazol-4-yl)ethyl]-4-[4-(8-methyl-7-quinolyl)phenoxy]piperidine-1-carboxamide, 2HCl], the IC50 fell in the range of 1000 to 10000 nM.

For the compound `Cc1c(-c2ccc(OC3CCN(C(=O)NO)CC3)cc2)ccc2nccn12` [Example 613, 4-[4-(5-Methylimidazo[1,2-a]pyridin-6-yl)phenoxy]piperidine-1-carbohydroxamic acid], the IC50 was 1000 to 10000 nM.

Still in this assay, the particulars now being: 5 nM FASN, 150 μM NADPH, 10 μM acetyl-CoA, 25 μM malonyl-CoA, 90 minutes incubation; read-out: IC50 data for Compounds of Formulae I-V/V(a): Activity.
Consider `O=C(C1CCCO1)N1CCC(Oc2ccc(-c3cnc4ccccc4c3)cc2)CC1` (stereo not drawn) [Example 126, [4-(4-Quinolin-3-yl-phenoxy)-piperidin-1-yl]-(tetrahydrofuran-2-yl)-methanone, HCl], for which the IC50 is 1 to 99 nM.

Regarding `Cc1c(-c2ccc(OC3CCN(C(=O)NC(C)C)CC3)cc2)ccc2cccnc12` [Example 92, N-Isopropyl-4-[4-(8-methyl-7-quinolyl)phenoxy]piperidine-1-carboxamide], the IC50 lay in the range of 1000 to 10000 nM.

Take `CNc1c(-c2ccc(OC3CCN(C(=O)[C@H]4CCCO4)CC3)cc2)cnc2ccccc12` [Example 236, {4-[4-(4-Methylaminoquinolin-3-yl)-phenoxy]-piperidin-1-yl}-(R)-tetrahydrofuran-2-yl-methanone]: the IC50 lay in the range of 100 to 999 nM.

For the compound `CCC(=O)N1CCC(Oc2ccc(-c3cnc4[nH]ccc4c3)cc2)CC1` [Example 32, 1-{4-[4-(1H-Pyrrolo[2,3-b]pyridin-5-yl)-phenoxy]-piperidin-1-yl}-propan-1-one], the IC50 fell in the range of 100 to 999 nM.

On to `CCC(=O)N1CCC(Oc2ccc(-c3ccc4cccnc4c3C)cc2F)CC1` [Example 225, 1-{4-[2-Fluoro-4-(8-methylquinolin-7-yl)-phenoxy]-piperidin-1-yl}-propan-1-one], for which the IC50 was in the range of 1 to 99 nM.

Consider `CC(C)C(=O)N1CCC(Oc2ccc(-c3cnc4ccccc4c3)cc2)CC1` [Example 113, 2-Methyl-1-[4-(4-quinolin-3-yl-phenoxy)-piperidin-1-yl]-propan-1-one, HCl], for which the IC50 was in the range of 100 to 999 nM.

`O=C([C@H]1CCCO1)N1CCC(Oc2ccc(-c3ccc4cccnc4c3OCCCN3CCCC3)cc2)CC1` [Example 184, (4-{4-[8-(3-Pyrrolidin-1-yl-propoxy)-quinolin-7-yl]-phenoxy}-piperidin-1-yl)-(R)-tetrahydrofuran-2-yl-methanone, HCl]: the IC50 lay in the range of 100 to 999 nM.

Take `CCC(=O)N1CCC(Oc2ccc(-c3ccc4cccnc4c3OC)cc2F)CC1` [Example 219, 1-{4-[2-Fluoro-4-(8-methoxy-quinolin-7-yl)-phenoxy]-piperidin-1-yl}-propan-1-one]: the IC50 lay in the range of 1 to 99 nM.

Consider `CCNC(=O)N1CCC(Oc2ccc(-c3ccc4cccnc4c3OC)cc2)CC1` [Example 86, 4-[4-(8-Methoxyquinolin-7-yl)-phenoxy]-piperidine-1-carboxylic acid ethylamide], for which the IC50 lay within 1 to 99 nM.

Regarding `Cc1c(-c2ccc(O[C@H]3CCN(C(=O)C4CC4)C[C@H]3F)cc2)ccc2cccnc12` (relative stereo) [Example 368, Cyclopropyl-{cis-3-fluoro-4-[4-(8-methylquinolin-7-yl)-phenoxy]-piperidin-1-yl}-methanone, HCl], the IC50 was in the range of 1000 to 10000 nM.

Take `Cc1c(-c2ccc(OC3CCN(C(=O)[C@H]4CCCO4)CC3)cc2)ccc2cnccc12` [Example 468, {4-[4-(5-Methylisoquinolin-6-yl)-phenoxy]-piperidin-1-yl}-(R)-tetrahydro-furan-2-yl-methanone, HCl]: the IC50 fell in the range of 1 to 99 nM.

As for `O=C([C@H]1CCCO1)N1CCC(Oc2ccc(-c3ccc4nnc(C(F)(F)F)n4c3)cc2)CC1` [Example 161, (R)-Tetrahydrofuran-2-yl-{4-[4-(3-trifluoromethyl-1,2,4-triazolo[4,3-a]pyridin-6-yl)-phenoxy]-piperidin-1-yl}-methanone], the IC50 lay in the range of 1000 to 10000 nM.

`Cc1nc2ccc(-c3ccc(OC4CCN(C(=O)C5CC5)CC4)cc3)cn2c1C` [Example 291, Cyclopropyl-{4-[4-(2,3-dimethylimidazo[1,2-a]pyridin-6-yl)-phenoxy]-piperidin-1-yl}-methanone]: the IC50 was 1000 to 10000 nM.
